PubChem BioAssay AID256 (DTP/NCI, 2004)
Values joined by “and” are separate entries in the source; they are usually repeats but may differ in a detail not shown here. Identical values can stand only once. Toxic doses and inconclusive results are not listed.

Test system: CD2F1 mice, L1210 leukemia ip, survival T/C
Test: NCI In Vivo Anticancer Drug Screen. Data for tumor model L1210 Leukemia (intraperitoneal) in CD2F1 (CDF1) mice
Settings: higher = longer survival
In short: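 In this screen, transplantable tumors were grown in mice given either the compound or its vehicle. Results were expressed as the treated measurement relative to the control measurement.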

[1] = endpoint: mean survival time, dose: 50.0 mg/kg/injection, schedule: Q04DX003 (ip), vehicle: saline with Tween-80

**Q.** For CN(Cc1ccccc1)/N=N/c1nc[nH]c1C(N)=O, which T/C (endpoint: mean survival time, dose: 4.0 mg/kg/injection, schedule: Q01DX009 (ip), vehicle: Klucel (hydroxypropylcellulose) (HPC)) is on record?
**A.** The T/C was 98 % of control.

**Q.** What about the T/C (endpoint: mean survival time, dose: 8.0 mg/kg/injection, schedule: Q01DX009 (ip), vehicle: Klucel (hydroxypropylcellulose) (HPC)) of the same compound?
**A.** Its T/C is 98 % of control.

**Q.** And the T/C (endpoint: mean survival time, dose: 16.1 mg/kg/injection, schedule: Q01DX009 (ip), vehicle: Klucel (hydroxypropylcellulose) (HPC))?
**A.** Its T/C is 102 % of control.

**Q.** What about the T/C (endpoint: mean survival time, dose: 32.2 mg/kg/injection, schedule: Q01DX009 (ip), vehicle: Klucel (hydroxypropylcellulose) (HPC)) of the same compound?
**A.** Its T/C is 106 % of control.

**Q.** What about the T/C (endpoint: mean survival time, dose: 129.0 mg/kg/injection, schedule: Q01DX009 (ip), vehicle: Klucel (hydroxypropylcellulose) (HPC)) of the same compound?
**A.** The T/C was 95 % of control.

**Q.** What about the T/C (endpoint: mean survival time, dose: 258.0 mg/kg/injection, schedule: Q01DX009 (ip), vehicle: Klucel (hydroxypropylcellulose) (HPC)) of the same compound?
**A.** Its T/C is 70 % of control.

**Q.** And the T/C (endpoint: median survival time, dose: 8.0 mg/kg/injection, schedule: Q03HX016 (ip), vehicle: saline with Tween-80)?
**A.** The T/C was 106 % of control.

**Q.** What about the T/C (endpoint: median survival time, dose: 8.0 mg/kg/injection, schedule: Q03HX024 (ip), vehicle: saline with Tween-80) of the same compound?
**A.** Its T/C is 115 % of control.

**Q.** And the T/C (endpoint: median survival time, dose: 16.0 mg/kg/injection, schedule: Q03HX016 (ip), vehicle: saline with Tween-80)?
**A.** The T/C was 112 % of control.

**Q.** And the T/C (endpoint: median survival time, dose: 16.0 mg/kg/injection, schedule: Q03HX024 (ip), vehicle: saline with Tween-80)?
**A.** Its T/C is 124 % of control.

**Q.** And the T/C (endpoint: median survival time, dose: 32.0 mg/kg/injection, schedule: Q03HX016 (ip), vehicle: saline with Tween-80)?
**A.** The T/C was 123 % of control.

**Q.** What about the T/C (endpoint: median survival time, dose: 64.0 mg/kg/injection, schedule: Q04DX003 (ip), vehicle: saline with Tween-80) of the same compound?
**A.** Its T/C is 116 % of control.

**Q.** What about the T/C (endpoint: median survival time, dose: 64.0 mg/kg/injection, schedule: Q08DX002 (ip), vehicle: saline with Tween-80) of the same compound?
**A.** The T/C was 105 % of control.

**Q.** And the T/C (endpoint: median survival time, dose: 128.0 mg/kg/injection, schedule: Q04DX003 (ip), vehicle: saline with Tween-80)?
**A.** Its T/C is 123 % of control.

**Q.** What about the T/C (endpoint: median survival time, dose: 128.0 mg/kg/injection, schedule: Q08DX002 (ip), vehicle: saline with Tween-80) of the same compound?
**A.** The T/C was 112 % of control.

**Q.** And the T/C (endpoint: median survival time, dose: 256.0 mg/kg/injection, schedule: Q01DX009 (ip), vehicle: saline with Tween-80)?
**A.** Its T/C is 120 % of control.

**Q.** What about the T/C (endpoint: median survival time, dose: 256.0 mg/kg/injection, schedule: Q08DX002 (ip), vehicle: saline with Tween-80) of the same compound?
**A.** The T/C was 112 % of control.

**Q.** And the T/C (endpoint: median survival time, dose: 512.0 mg/kg/injection, schedule: Q08DX002 (ip), vehicle: saline with Tween-80)?
**A.** Its T/C is 156 % of control.

**Q.** With OC(c1ccccc1)(c1ccccc1)c1ccncc1 as the compound, how does the T/C (endpoint: mean survival time, dose: 12.5 mg/kg/injection, schedule: Q01DX009 (ip), vehicle: saline with Tween-80) read?
**A.** Its T/C is 91 % of control.

**Q.** And the T/C (endpoint: mean survival time, dose: 25.0 mg/kg/injection, schedule: Q01DX009 (ip), vehicle: saline with Tween-80)?
**A.** The T/C was 87 % of control.

**Q.** And the T/C (endpoint: mean survival time, dose: 50.0 mg/kg/injection, schedule: Q01DX009 (ip), vehicle: saline with Tween-80)?
**A.** Its T/C is 91 % of control.

**Q.** For Cc1cc(C)cc(NC(=O)c2ccccc2N)c1, which T/C (endpoint: mean survival time, dose: 100.0 mg/kg/injection, schedule: Q01DX009 (ip), vehicle: saline with Tween-80) is on record?
**A.** Its T/C is 107 % of control.

**Q.** And the T/C (endpoint: mean survival time, dose: 200.0 mg/kg/injection, schedule: Q01DX009 (ip), vehicle: saline with Tween-80)?
**A.** The T/C was 95 % of control.

**Q.** What about the T/C (endpoint: mean survival time, dose: 400.0 mg/kg/injection, schedule: Q01DX009 (ip), vehicle: saline with Tween-80) of the same compound?
**A.** The T/C was 107 % of control.

**Q.** With O=c1nc2n(cc1F)C1OC(CCl)C(O)C1O2 (configuration not stated) as the compound, how does the T/C (endpoint: median survival time, dose: 12.5 mg/kg/injection, schedule: Q01DX005 (ip), vehicle: saline with Tween-80) read?
**A.** Its T/C is 101 % of control.

**Q.** And the T/C (endpoint: median survival time, dose: 25.0 mg/kg/injection, schedule: Q01DX005 (ip), vehicle: saline with Tween-80)?
**A.** The T/C was 104 % of control.

**Q.** And the T/C (endpoint: median survival time, dose: 50.0 mg/kg/injection, schedule: Q01DX005 (ip), vehicle: saline with Tween-80)?
**A.** The T/C was 97 % of control.

**Q.** What about the T/C (endpoint: median survival time, dose: 100.0 mg/kg/injection, schedule: Q01DX005 (ip), vehicle: saline with Tween-80) of the same compound?
**A.** The T/C was 101 % of control.

**Q.** And the T/C (endpoint: median survival time, dose: 200.0 mg/kg/injection, schedule: Q01DX005 (ip), vehicle: saline with Tween-80)?
**A.** The T/C was 105 % of control.

**Q.** With CCOC(=O)C(=CC(C(=O)OCC)C(=O)OCC)C(=O)OCC as the compound, how does the T/C (endpoint: mean survival time, dose: 100.0 mg/kg/injection, schedule: Q01DX001 (ip), vehicle: saline with Tween-80) read?
**A.** Its T/C is 93 % of control.

**Q.** And the T/C (endpoint: mean survival time, dose: 200.0 mg/kg/injection, schedule: Q01DX001 (ip), vehicle: saline with Tween-80)?
**A.** The T/C was 104 % of control.

**Q.** What about the T/C (endpoint: mean survival time, dose: 400.0 mg/kg/injection, schedule: Q01DX001 (ip), vehicle: saline with Tween-80) of the same compound?
**A.** The T/C was 96 % of control.

**Q.** CN(C)c1ccc(/C=C/c2nc(N)nc(N)c2[N+](=O)[O-])cc1 was tested. Which T/C (endpoint: mean survival time, dose: 25.0 mg/kg/injection, schedule: Q01DX009 (ip), vehicle: water) did it give?
**A.** The T/C was 98 % of control.

**Q.** And the T/C (endpoint: mean survival time, dose: 50.0 mg/kg/injection, schedule: Q01DX009 (ip), vehicle: water)?
**A.** The T/C was 97 % of control.

**Q.** And the T/C (endpoint: mean survival time, dose: 100.0 mg/kg/injection, schedule: Q01DX009 (ip), vehicle: water)?
**A.** The T/C was 97 % of control.

**Q.** And the T/C (endpoint: mean survival time, dose: 200.0 mg/kg/injection, schedule: Q01DX009 (ip), vehicle: water)?
**A.** The T/C was 92 % of control.

**Q.** And the T/C (endpoint: mean survival time, dose: 400.0 mg/kg/injection, schedule: Q01DX009 (ip), vehicle: water)?
**A.** Its T/C is 90 % of control.

**Q.** For NC(=O)c1ncnnc1N, which T/C (endpoint: mean survival time, dose: 100.0 mg/kg/injection, schedule: Q01DX001 (ip), vehicle: carboxymethylcellulose (CMC)) is on record?
**A.** Its T/C is 93 % of control.

**Q.** What about the T/C (endpoint: mean survival time, dose: 200.0 mg/kg/injection, schedule: Q01DX001 (ip), vehicle: carboxymethylcellulose (CMC)) of the same compound?
**A.** The T/C was 102 % of control.

**Q.** What about the T/C (endpoint: mean survival time, dose: 400.0 mg/kg/injection, schedule: Q01DX001 (ip), vehicle: carboxymethylcellulose (CMC)) of the same compound?
**A.** Its T/C is 102 % of control.

**Q.** Which T/C [1] does the source give for Nc1nc[nH]c(=O)c1NC(=O)c1cccc([N+](=O)[O-])c1 here?
**A.** The T/C was 101 % of control and 111 % of control.

**Q.** And the T/C (endpoint: mean survival time, dose: 100.0 mg/kg/injection, schedule: Q04DX002 (ip), vehicle: saline with Tween-80)?
**A.** The T/C was 96 % of control and 109 % of control.

**Q.** And the T/C (endpoint: mean survival time, dose: 200.0 mg/kg/injection, schedule: Q04DX002 (ip), vehicle: saline with Tween-80)?
**A.** Its T/C is 92 % of control and 104 % of control.

**Q.** And the T/C (endpoint: mean survival time, dose: 400.0 mg/kg/injection, schedule: Q04DX002 (ip), vehicle: saline with Tween-80)?
**A.** Its T/C is 114 % of control and 96 % of control.

**Q.** How did the T/C (endpoint: mean survival time, dose: 25.0 mg/kg/injection, schedule: Q04DX003 (ip), vehicle: saline with Tween-80) turn out when CN(C)Cc1cc(Cl)cc(CN(C)C)c1O was run?
**A.** The T/C was 105 % of control.

**Q.** What about the T/C [1] of the same compound?
**A.** Its T/C is 97 % of control.

**Q.** And the T/C (endpoint: mean survival time, dose: 100.0 mg/kg/injection, schedule: Q04DX003 (ip), vehicle: saline with Tween-80)?
**A.** The T/C was 101 % of control.
